In patent US8044035B2, “Pharmaceutical compositions of pyrimidine-2,4,6-triones” (priority 2004, dated 2011):
Values after ≈ are worked out from the molar mass of the structure shown.

What was measured:
[1] = Pharmacokinetics after intravenous administration to sheep; format: in vivo; settings: intravenous 5 mg/kg
Method: The Compound I/HP-β-CD intravenous solution was obtained by dissolving Compound I (10 mg/ml) in a solution containing HP-β-CD (200 mM), L-lysine (20 mM) and water for injection. The osmolality (about 325 mOsmol/kg) and the pH (about 8.2) values of this solution are compatible with an intravenous injection. The solution was sterilized by passing through a sterile 0.20 μm cellulose acetate filter under aseptic conditions.
Six healthy sheep (2 males and 4 females) ranging from 45 to 82 kg of body weight were used as experimental animals. During the test, the animals were fed and watered ad libitum. […]
For the intravenous administration study, the pharmacokinetic parameters were determined for each animal using a linear two-compartment model with first-order distribution and elimination (Boroujerdi, M., Pharmacokinetics, Principles and Applications. McGrow-Hill Companies, USA, 2002). The areas under the curve values (AUCs0-168) were calculated by linear trapezoidal rule during the sampling period. The AUC extrapolated until infinite values (AUCs0-∞) the total body clearance values (Clt), the biologic half-life (T1/2β) and the overall volume of distribution (Vdt) were calculated using conventional equations associated with compartmental analysis (Boroujerdi, M., Pharmacokinetics, Principles and Applications. McGrow-Hill Companies, USA, 2002).

[2] = test system: aorta ring, formation of new vessels (angiogenesis); assay: Aorta ring model of neovascularisation (inhibition of angiogenesis); format: cell-based; settings: aorta ring in culture medium, final concentration 10^−6 M, 10^−7 M
Text: In order to study the potential effects of the complex Compound I-cyclodextrine, a model of neovascularisation has been used. An aorta ring is cut and placed in a culture medium. This culture medium containing either: • no active principle • the complex compound I-cyclodextrins (final concentration 10-^6M, 10^−7M) • compound I dissolved in DMSO with the help of […] (final concentration 10-^6, 10-^7M).

[3] = test system: allergen-induced airway inflammation in a mouse model of asthma; assay: Mouse model of asthma, intraperitoneal injection of Compound I; format: in vivo, mice
Method: No inhalations were performed during even weeks.

[4] = test system: allergen-induced airway inflammation in a mouse model of asthma; assay: Mouse model of asthma, inhalation, long-term exposure challenge (11 weeks); settings: aerosol, long term (11 weeks) allergen exposure, p<0.01
Method: Intraperitoneal injections were performed 30 min before OVA inhalations. […] Two protocols referred to as short exposure challenge and long-term exposure challenge were used. […] No inhalations were performed during even weeks.
(§1) The aerosol were produced by using an ultrasonic nebuliser SYSTAM (Système Assistance Medical, Le Ledat, France), the vibration frequency of which is 2.4 MHz with variable vibration intensity and ventilation levels. Vibration intensity was fixed in position 6 and the ventilation level was 25(v1/2) l/min.
Immediately after the assessment of airway responsiveness, mice were sacrificed and 1 ml of PBS free of ionised calcium and magnesium but supplemented with 0.05 mM sodium EDTA was instilled 4 times via a tracheal cannula and recovered by gentle manual aspiration. […] After BAL, the thorax was opened and the left main bronchus was clamped. […] Another score referred to as tissue eosinophil infiltration score, specifically reflecting the amounts of eosinophils infiltrating the bronchial walls, was measured as follows: after a congo red staining, seven bronchi were studied per mouse. The eosinophils were counted around the bronchi within the limits of the airway wall, the perimeter of the epithelial basement membrane was measured and the results were expressed as number of eosinophils/mm of basement membrane.

[5] = test system: allergen-induced airway inflammation and bronchial hyperresponsiveness in a mouse model of asthma; assay: Mouse model of asthma, inhalation, short exposure challenge; settings: inhalation of Compound I 40 mg/ml in pure DMSO, short-term exposure, vs DMSO alone
Method: Two protocols referred to as short exposure challenge and long-term exposure challenge were used. […] No inhalations were performed during even weeks.
as §1
Twenty-four hours after the last allergen exposure, the bronchial hyper responsiveness was determined by measuring the Penh using a barometric plethysmograph as proposed by Hamelmann, E., et al., Am. […] The Penh was measured at baseline and 5 min after the inhalation of increasing doses (25, 50, 75 and 100 mM) of methacholine (Mch).
Immediately after the assessment of airway responsiveness, mice were sacrificed and 1 ml of PBS free of ionised calcium and magnesium but supplemented with 0.05 mM sodium EDTA was instilled 4 times via a tracheal cannula and recovered by gentle manual aspiration. The recovered bronchoalveolar lavage fluid (BAL) was centrifuged (1800 rpm for 10 min at 4° C.). The cell pellet was washed twice and finally resuspended in 1 ml of PBS. A total cell count was performed in a Thoma chamber and the differential cell counts on at least 400 cells were performed on cytocentrifuged preparations (Cytospin 2; Cytospin, Shandon td., Runcorn, Cheshire, U.K.) using standard morphologic criteria after staining with Diff-Quick (Dade, Germany). After BAL, the thorax was opened and the left main bronchus was clamped. […] Sections of 5 μm thickness from all lobes were stained with haematoxylin and eosin. The extent of peribronchial infiltrates was estimated by an inflammation score. […] A value from 0 to 3 per criteria was adjudged to each tissue section scored. […] As 5-7 randomly selected tissue sections per mouse were scored, inflammation scores could be expressed as a mean value per animal and could be compared between groups.

[6] = Differential solubility in acetonitrile of free and complexed compound I; format: physicochemical; settings: organic solvent or mixture; free compound
Text: Compound I has different solubility when it is in the complex form or not. […] In these conditions the included drug remains trapped and becomes insoluble in the solvent. This technique of differential solubility between compound I in the free or in the complexed form can be applied to evaluate the percentage of complexation.

[7] = Phase solubility studies with L-lysine solution as adjuvant (25° C., 7 days, LC); format: physicochemical
Method: Solubility studies were performed as described by Higuchi, T., and Connors, K. A., Advances in Analytical Chemistry and Instrumentation 4 (1965) 117-212. Excess amounts of Compound I were added to increasing concentrations of HP-β-CD (0-200 mM) in 5 ml dissolution media, either purified water or L-lysine solutions (50 mM or 500 mM). The glass containers were sealed and the suspensions were shaken in a water-bath at 25° C. until complexation equilibrium was reached (7 days). An aliquot was filtered through a 0.45 μm PVDF membrane filter and assayed for Compound I content by a validated liquid chromatography (LC) method.

With `O=C1NC(=O)C(c2ccc(-c3ccccc3)cc2)(N2CCN(c3ccc([N+](=O)[O-])cc3)CC2)C(=O)N1` [Compound I, 5-Biphenyl-4-yl-5-[4-(4-nitro-phenyl)-piperazin-1-yl]pyrimidine-2,4,6-trione] the Distribution phase [1] was “about 30 minutes”, the “Angiogenesis (formation of new vessels)” value [2] was “inhibited significantly” and the Peribronchial inflammation scores ([3]; 3.75 to 30 mg/kg, equal efficacy of all tested formulations) was “significantly lowered”. The “Tissue eosinophil infiltration score” value ([3]; doses of 7.5 and 25 mg/kg) was “significantly lowered”, the “Allergen-induced airway eosinophilic inflammation in BAL” value ([3]; solution or precipitate, 3.75 to 30 mg/kg, compared to placebo, OVA-sensitized mice) was “lowered” and the “Tissue eosinophil infiltration score” value [4] was “decreased”. The BAL eosinophils ([5]; p<0.005) was “significant decrease”, the Peribronchial inflammation scores ([5]; p<0.01) was “significant decrease” and the Bronchial hyperresponsiveness ([5]; p<0.05) was “significant decrease”. For the same molecule, the solubility [6] was ~700 µg/mL (≈ 1440 µM), the “Increase of aqueous solubility” value ([7]; 200 mM HP-β-CD, absence of L-lysine) was “approximately 10,000 fold” and the “Increase of aqueous solubility” value ([7]; 500 mM of L-lysine and 200 mM of HP-β-CD) was 70,000 fold. The “Solubility with HP-β-CD (200 mM)” value ([7]; Purified Water, 25° C.) was 5530 µg/mL.
